Experimental data as given in US20050049299A1, “Selective inhibitors of stat-3 activation and uses thereof” (priority 2003, published 2005).

B1: lymphotoxin: bacteria-derived recombinant human LT provided by Genentech (protein, UniProt P01374 35-205, looked up)
Lymphotoxin-alpha: LPGVGLTPSAAQTARQHPKMHLAHSTLKPAAHLIGDPSKQNSLLWRANTDRAFLQDGFSLSNNSLLVPTSGIYFVYSQVVFSGKAYSPKATSSPLYLAHEVQLFSSQYPFHVPLLSSQKMVYPGLQEPWLHSMYHGAAFQLTQGDQLSTHTDGIPHLVLSPSTVFFGAFAL

What was measured:
STAT3 phosphorylation [1] = test: IL-6-inducible STAT3 phosphorylation in RPMI 8226 cells (Western blot); assay type: cell-based, human; settings: IL-6 10 ng/ml
Protocol: FIGS. 3A-C show& that IL-6 induces STAT3 phosphorylation in human multiple myeloma RPMI 8226 cells and curcumin inhibits it. […] U266, RPMI 8226, MM.1S, MM.1R and OCl cells (2×10^6) were lysed, and 30 μg of whole-cell extracts were resolved on 7.5% SDS-PAGE, electrotransferred to a nitrocellulose membrane, and probed for phosphorylated-STAT3 (upper panel) and STAT3 (lower panel). […] Thirty micrograms of whole cell extracts were resolved on 7.5% SDS-PAGE, electrotransferred to a nitrocellulose membrane, and probed for the phosphorylated-STAT3 (upper panel) and stripped and reprobed for STAT3 (middle panel) and β-actin (lower panel).
(§1) For detection of STAT proteins, whole-cell extracts were prepared by lysing the curcumin-treated cells in lysis buffer (20 mM Tris, pH 7.4, 250 mM NaCl, 2 mM EDTA, pH 8.0, 0.1% Triton-X100, 0.01 mg/ml aprotinin, 0.005 mg/ml leupeptin, 0.4 mM PMSF, and 4 mM NaVO4). Lysates were then spun at 14000 rpm for 10 min to remove insoluble material, and resolved on a 7.5% gel. After electrophoresis, the proteins were electrotransferred to a nitrocellulose membrane, blocked with 5% nonfat milk, and probed with anti-STAT antibodies (1:1000) overnight at 4° C. The blot was washed, exposed to HRP-conjugated secondary antibodies for 1 h, and finally examined by chemiluminescence (ECL, Amersham Pharmacia Biotech. Arlington Heights, Ill.).
Since IL-6 is a growth factor for multiple myeloma and induces STAT3 phosphorylation (5, 6, 15), whether curcumin could inhibit IL-6-induced STAT3 phosphorylation was examined. […] IL-6 induced phosphorylation of STAT3 as early as 5 min and began to decline at 60 minutes (FIG. 3B). RPMI 8226 cells were then incubated with curcumin for different times and examined for IL-6-inducible STAT3 phosphorylation.
Exposure of cells to curcumin for 4 hours was sufficient to completely suppress IL-6-induced STAT3 phosphorylation. Curcumin alone had no effect on STAT3 phosphorylation in these cells (data not shown).

U266 cells = test: IL-6-induced proliferation of U266 cells (thymidine incorporation, MTT); assay type: cell-based, human; settings: serum starved 12 h, IL-6 48 h
Protocol: (§2) FIGS. 7A-B show& that IL-6 induces proliferation of human multiple myeloma cells and curcumin inhibits it. […] Cell proliferation assays were performed as described below. Results are shown as mean (±s.d.) of percent [^3H] thymidine incorporation or percent proliferation by MTT of triplicate cultures compared to the untreated control.
(§3) The antiproliferative effects of curcumin against different multiple myeloma cell lines were determined by the MTT dye uptake method as described earlier (28). Briefly, the cells (5000/well) were incubated in triplicate in a 96-well plate in the presence or absence of indicated test samples in a final volume of 0.1 ml for 24 h at 37° C. […] The OD at 570 nm was measured using a 96-well multiscanner autoreader (Dynatech MR 5000), with the extraction buffer serving as blank. Percent cell viability cell viability was calculated using the following formula: Percent cell viability=(OD of the experiment samples/OD of the control)×100.
(§4) The antiproliferative effects of curcumin were also monitored by the thymidine incorporation method. […] Six hours before the completion of experiment, cells were pulse treated with 0.5 μCi [^3H]thymidine, and the uptake of [^3H]thymidine was monitored using a Matrix-9600 β-counter (Packard Instruments, Downers Grove, Ill.). […]
(§5) Whether curcumin suppresses the proliferative effects of IL-6 was determined.

MM.1 cells = test: IL-6-induced proliferation of MM.1 cells; assay type: cell-based, human; settings: serum starved 12 h, IL-6 48 h
Protocol: as §2, §3, §4, §5

MM.1R cells = test: IL-6-induced proliferation of MM.1R cells; assay type: cell-based, human; settings: serum starved 12 h, IL-6 48 h
Protocol: as §2, §3, §4, §5

RPMI 8226 cells = test: IL-6-induced proliferation of RPMI 8226 cells; assay type: cell-based, human; settings: serum starved 12 h, IL-6 48 h
Protocol: as §2
(§6) The antiproliferative effects of curcumin were also monitored by the thymidine incorporation method. For this, 5000 cells in 100 μl medium were cultured in triplicate in 96-well plates in the presence or absence of curcumin for 24 h. Six hours before the completion of experiment, cells were pulse treated with 0.5 μCi [^3H]thymidine, and the uptake of [^3H]thymidine was monitored using a Matrix-9600 β-counter (Packard Instruments, Downers Grove, Ill.).
To reconfirm previous reports (5, 6, 15, 31) that IL-6 induces proliferation of MM cells, U266, RPMI 8226, MM.1 and MM.1R were serum-starved for 12 h and then cultured them in the absence or presence of different concentrations of IL-6 for 48 h.

STAT3 phosphorylation [2] = test: STAT3 phosphorylation in MM.1S and MM.1R cells after TNF, LT or IL-6 (Western blot); assay type: cell-based, human
Protocol: (§7) The cell proliferation assay was performed as described below. Results are shown as mean (±s.d. indicated by error bar) of percent [^3H] thymidine incorporation of triplicate cultures compared to the untreated control. […] Cells were treated with IL-6 for 10 minutes as a positive control for STAT3 phosphorylation. Thirty micrograms of whole cell extract was were resolved on 7.5% SDS-PAGE, electrotransferred to a nitrocellulose membrane, and probed for phosphorylated-STAT3 (upper panel), stripped, and reprobed for STAT3 (lower panel).
as §1
(§8) MM.1S and MM.1R cells were serum starved for 12 h and then treated with TNF or lymphotoxin in the serum free medium.

STAT3 phosphorylation [3] = test: IL-6-induced STAT3 phosphorylation in JMAR cells (Western blot); assay type: cell-based, human; settings: IL-6 10 ng/ml
Protocol: JMAR cells (2×10^6 cells) were treated with IL-6 (10 ng/ml) for the indicated time and whole cell extracts were prepared. These extracts (30 μg) were resolved on 7.5% SDS-PAGE, electrotransferred to a nitrocellulose membrane and probed for p-STAT3 (upper panel) and stripped and re-probed for STAT3 (lower panel). […] JMAR cells were pretreated with curcumin (50 μM) for indicated durations and stimulated with IL-6 (10 ng/ml) for 10 mins and whole cell extract prepared and probed as mentioned earlier.
JMAR cells were treated with IL-6 for different durations and the levels of p-STAT3 and STAT3 were examined. Treatment with IL-6 as early as 5 mins induced STAT3 phosphorylation in JMAR cells (FIG. 14A, upper panel). However, STAT3 levels were unaffected (FIG. 14A, lower panel).
Further, since IL-6 induced STAT3 phosphorylation in JMAR cells, the ability of curcumin to inhibit this STAT3 phosphorylation was also examined. JMAR cells were pretreated with curcumin for different durations and stimulated with IL-6 for 10 minutes. Both the status of p-STAT3 and STAT3 were determined in the whole cell extracts of these cells. Treatment with curcumin for as early as 30 minutes led to decline in the phosphorylation of STAT3 which declined further with increased exposure to curcumin. Exposure to curcumin for 2 hours inhibited STAT3 phosphorylation in JMAR cells (FIG. 14B, upper panel). The STAT3 levels were unaffected by this treatment (FIG. 14B, lower panel).

[4] = test system: MDA 1986LN, JMAR and MDA 686LN cells; test: IL-6-induced proliferation of human HNSCC cells (thymidine incorporation); assay type: cell-based; settings: serum starved 12 hrs, IL-6 48 hrs
Protocol: Human head and neck squamous cell carcinoma cells MDA 1986LN, JMAR and MDA 686LN were serum starved for 12 hrs. These cells were then cultured with the indicated concentrations of IL-6 for 48 hrs in serum-free medium. Cell viability was determined by thymidine incorporation method.
The present invention also investigated the effect of IL-6 on the proliferation of human HNSCC cells such as MDA 1986LN, JMAR and MDA 686LN by thymidine incorporation method. These cells were serum starved for 12 hrs and then cultured with different concentrations of IL-6 for 48 hrs in serum-free medium.

MM.1S and MM.1R cells = test: TNF- and LT-induced proliferation of MM.1S and MM.1R cells (thymidine incorporation); assay type: cell-based, human; settings: serum starved 12 h, 48 hours serum-free
Protocol: as §7, §6, §8

| Molecule | earliest time of IL-6-induced phosphorylation of STAT3 (STAT3 phosphorylation [1]) [min] | time at which IL-6-induced STAT3 phosphorylation began to decline (STAT3 phosphorylation [1]) [min] | proliferation of U266 cells induced by IL-6 (U266 cells) | proliferation of MM.1 cells induced by IL-6 (MM.1 cells) | proliferation of MM.1R cells induced by IL-6 (MM.1R cells) | proliferation response of RPMI 8226 cells to IL-6 (RPMI 8226 cells) | induction of STAT3 phosphorylation (STAT3 phosphorylation [2]; IL-6 10 minutes (positive control)) | earliest time of IL-6-induced STAT3 phosphorylation (STAT3 phosphorylation [3]) [min] | proliferation of human HNSCC cells induced by IL-6 [4] | proliferative effects in MM.1S and MM.1R cells (MM.1S and MM.1R cells) | induction of STAT3 phosphorylation (STAT3 phosphorylation [2]; 1 nM TNF or LT) |
| --- | --- | --- | --- | --- | --- | --- | --- | --- | --- | --- | --- |
| IL-6: bacteria-derived recombinant human IL-6 provided by Sandoz Pharmaceutical | 5 | 60 | induced proliferation | induced proliferation | induced proliferation | did not respond | induced STAT3 phosphorylation in both cell lines | 5 | induced proliferation of MDA 1986LN, JMAR and MDA 686LN cells | – | – |
| B1 | – | – | – | – | – | – | – | – | – | more pronounced in dex-resistant MM.1R cells than in dex-sensitive MM.1S cells | neither TNF nor lymphotoxin induced STAT3 phosphorylation |
